Holding throughout (experiment): NCI-60 cell line screen, 48 h
The test system of assay [1] is ACHN renal.
In assay [2] the test system is HCT-116 colon.
Assay [3] concerns HL-60(TB) leukemia.
Assay [4] concerns MCF7 breast.
For assay [5], the system named is MDA-MB-231 breast.
Assay [6] has as its system MDA-N.
The test system of assay [7] is OVCAR-8 ovarian.
Assay [8] has as its system PC-3 prostate.
The test system of assay [9] is SF-268 CNS.
The test system of assay [10] is SK-MEL-28 melanoma.
Assay [11] concerns SK-MEL-5 melanoma.
Assay [12] relates to SK-OV-3 ovarian.
Assay [13] concerns SW-620 colon.
The test system of assay [14] is T-47D breast.
The test system of assay [15] is UO-31 renal.
Assay [16] has as its system LOX IMVI melanoma.
Assay [17] concerns MALME-3M melanoma.
The test system of assay [18] is NCI/ADR-RES ovarian.
For assay [19], the system named is UACC-257 melanoma.

Among the data in PubChem BioAssay (NCI) are TGI values, retold here.

The structures appear in SMILES notation.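 48-hour exposure; five concentrations; linearly interpolated endpoints. At the TGI there is no net growth.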

`C=C(Cl)C(Br)(CBr)CCC(Br)C(C)(C)Br` (stereo unspecified): the TGI in assay [1] was more than 10 µM; in assay [2] it was 3.92 µM; in assay [3] it was more than 1 µM; in assay [4], 5.32 µM; in assay [5], 3.38 µM; in [6], more than 10 µM. Further, the TGI in assay [7] was more than 1 µM; in assay [8] it was more than 10 µM; in assay [9], 6.25 µM; in [10] it was more than 10 µM; in assay [11], more than 10 µM; in [12] it was more than 10 µM. Further, the TGI is 9.33 µM in assay [13], more than 1 µM in [14] and more than 10 µM in [15].

Take `O=c1[nH]n(Cc2ccccc2CCl)c2ccc([N+](=O)[O-])cc12`: the TGI is more than 100 µM in assay [1]; more than 100 µM in assay [2]; 99.6 µM in assay [3]; more than 100 µM in assay [16]; more than 100 µM in assay [17]; more than 100 µM in assay [4]. In addition, the TGI in assay [5], in assay [6], in assay [18], in assay [7], in assay [8] and in [9] was more than 100 µM throughout. Also, the TGI was more than 100 µM in assay [10]; 30.4 µM in [11]; 81.8 µM in assay [12]; more than 100 µM in assay [13]; more than 100 µM in assay [19]; more than 100 µM in [15].

Regarding `COc1ccc(-c2cc(-c3ccco3)c(C#N)c(=S)n2C2OC(CO)C(O)C(O)C2O)cc1` (stereo unspecified), the TGI in [1], in assay [2], in [16], in [17], in assay [4] and in [5] was more than 100 µM throughout. Also, the TGI in [6], in [18], in assay [7], in [8], in assay [9] and in assay [10] was more than 100 µM each time. The TGI in [11], in assay [12], in [13], in assay [19] and in assay [15] was more than 100 µM each time.

Consider `CCOC(=O)/C(=C\NC(C)(C)C)c1nc2ccccc2o1`, for which the TGI in assay [1] is 68.5 µM; in assay [2], more than 100 µM; in [3], 19.1 µM; in [16] it was 65.4 µM; in [17] it was 85.6 µM; in assay [4], more than 100 µM. Moreover, the TGI in assay [6] is more than 100 µM; in assay [18], more than 100 µM; in assay [7], more than 100 µM; in assay [9], more than 100 µM; in assay [10] it was more than 100 µM; in assay [11], 26 µM. Besides, the TGI in [12] is more than 100 µM; in [13], more than 100 µM; in [19], 51.1 µM.

As for `CNC(=O)CN(CC(N)=O)C(=O)NC`, the TGI in assay [1], in assay [3], in assay [16], in assay [17], in [7] and in assay [9] was more than 100 µM in each case. Besides, the TGI in assay [10], in assay [11], in assay [12], in assay [13] and in assay [15] was more than 100 µM throughout.

Regarding `O=C(Nc1ccccc1)C(=O)C(C(=O)c1ccccc1)C(c1ccccc1)c1ccccc1` (stereo unspecified), the TGI in assay [3], in assay [16], in assay [17], in assay [4], in assay [5] and in assay [6] was more than 10 µM in each case. Besides, the TGI in [7], in [8], in [9], in assay [10], in assay [11] and in assay [12] was more than 10 µM each time. Moreover, the TGI in assay [13], in assay [14] and in assay [19] was more than 10 µM each time.

Regarding `COC(=O)c1cc(C#N)[nH]c1-c1cccs1`, the TGI in [1], in assay [2], in assay [5], in assay [6], in assay [18] and in [7] was more than 100 µM each time. For the same compound, the TGI in assay [8], in assay [9], in assay [10], in assay [12], in [13] and in assay [14] was more than 100 µM each time. Besides, the TGI in [19] and in assay [15] was more than 100 µM throughout.

For the compound `O=C(NN1C(=O)c2ccccc2C1=O)c1ccccc1Nc1ccccc1C(=O)NN1C(=O)c2ccccc2C1=O`, the TGI in assay [1], in assay [2], in assay [3], in [16], in assay [17] and in [4] was more than 100 µM in each case. Besides, the TGI in [5], in [6], in assay [18], in [7], in [8] and in assay [9] was more than 100 µM throughout. Further, the TGI in assay [10], in assay [11], in [13], in [19] and in assay [15] was more than 100 µM in each case.

For the compound `CO[C@H](c1ccccc1)[C@H](O)[C@](O)(c1ccccc1)P(=O)(OC)OC`, the TGI in assay [1], in assay [2], in assay [3], in assay [16], in assay [17] and in assay [5] was more than 100 µM in each case. Besides, the TGI in assay [6], in [18], in assay [7], in assay [8], in assay [9] and in [10] was more than 100 µM in each case. The TGI in assay [11], in assay [12], in assay [13], in assay [14], in [19] and in assay [15] was more than 100 µM throughout.

`Cc1cc2nc3c(C#N)c(-c4ccccc4)cc(Nc4ccc(F)cc4)n3c2cc1C`: the TGI in assay [1] is more than 100 µM; in assay [2] it was more than 100 µM; in assay [16], 29 µM; in assay [17] it was 70 µM; in assay [5], 51.1 µM; in assay [18] it was 71.6 µM. The TGI in assay [7] was 25.5 µM; in [9] it was 27.9 µM; in assay [10], more than 100 µM; in assay [11], more than 100 µM; in assay [12] it was 69.9 µM; in assay [13], more than 100 µM. Moreover, the TGI in assay [14] and in assay [19] was more than 100 µM in each case.

Turning to `CC(Oc1ccc(Cl)cc1Cl)C(=O)NN1C(=O)CSC1c1ccc(Cl)cc1` (stereo unspecified), the TGI in assay [1] is more than 100 µM; in assay [2], more than 100 µM; in assay [3], 84.7 µM; in [16], more than 100 µM; in assay [4], more than 100 µM; in [5], 97.4 µM. Further, the TGI in assay [18], in assay [7], in [8], in assay [9], in assay [10] and in assay [11] was more than 100 µM in each case. In addition, the TGI in assay [12], in assay [13], in [14], in [19] and in [15] was more than 100 µM throughout.

On to `C/C(=N/NC(=S)N1CCCC1)c1cccc(/C(C)=N\NC(=S)N2CCCC2)n1`, for which the TGI was 3.4 µM in assay [1]; 3.28 µM in [2]; 4.88 µM in assay [3]; more than 100 µM in [16]; 4.89 µM in [17]; 3.23 µM in [5]. The TGI in [6] was 3.89 µM; in assay [18], 7.62 µM; in assay [7], 2.35 µM; in assay [8], 5.36 µM; in assay [9], 14.7 µM; in [10], 5.09 µM. In addition, the TGI in assay [11] was found to be 2.69 µM; in assay [12], 4.65 µM; in assay [13], 4.33 µM; in [15], 2.11 µM.

With `Cc1cc(NCC2CC/C(=C\C=C\c3ccccc3)C2=O)no1` (stereo unspecified), the TGI in assay [1], in assay [2], in assay [3], in assay [16], in [17] and in [4] was more than 100 µM throughout. Also, the TGI in assay [5], in [18], in [7], in assay [8], in [9] and in assay [10] was more than 100 µM throughout. Further, the TGI in assay [11], in assay [12], in [13], in assay [14], in [19] and in assay [15] was more than 100 µM in each case.

`C=C1CC(COc2ccc3ccc(=O)oc3c2)(c2ccccc2)OC1=O` (stereo unspecified): the TGI was 3.61 µM in [1]; 2 µM in assay [2]; 0.708 µM in assay [3]; 2.57 µM in [16]; 6.77 µM in assay [17]; 2.78 µM in [4]. The TGI was found to be 6.88 µM in assay [5]; 3.85 µM in [6]; 12.4 µM in assay [18]; 7.9 µM in [7]; 7.58 µM in [8]; 11.9 µM in [9]. Also, the TGI in assay [10] was determined as 6.12 µM; in [11], 2.85 µM; in assay [12], 16.1 µM; in assay [13] it was 1.94 µM; in assay [19] it was 4.05 µM; in assay [15] it was 9.76 µM.

With `O=C(/C=C/c1cccs1)c1ccc(C(=O)/C=C/c2cccs2)cc1`, the TGI in [1], in assay [17], in [5], in [18], in assay [7] and in assay [8] was more than 100 µM each time. The TGI in assay [9], in assay [10], in assay [12], in [13], in [14] and in assay [19] was more than 100 µM each time. Moreover, in assay [15], the TGI is more than 100 µM.

`CN1CCN(C(=S)N(C)C(=O)c2cccs2)CC1`: the TGI in assay [1], in [16], in assay [17], in assay [4], in assay [5] and in [6] was more than 100 µM each time. The TGI in assay [7], in assay [11], in assay [13], in assay [14], in [19] and in assay [15] was more than 100 µM in each case.

For `O=C(/C=C\c1ccccc1-c1ccccc1)c1ccccc1`, the TGI in assay [1], in [2], in assay [3], in [5], in [6] and in assay [18] was more than 100 µM in each case. Also, the TGI in assay [7] was more than 100 µM; in assay [9], more than 100 µM; in assay [11], more than 100 µM; in assay [12], more than 100 µM; in assay [13], more than 100 µM; in assay [14], 96 µM. Further, the TGI in [19] and in assay [15] was more than 100 µM each time.

For the compound `Cc1ccc(S(=O)(=O)n2cnc(CC(NC(=O)C3CCC(=O)N3C(=O)OCc3ccccc3)C(=O)N3CCCC3C(=O)NN)c2)cc1` (stereo unspecified), the TGI in [1], in assay [2], in assay [3], in [17], in assay [4] and in assay [5] was more than 100 µM each time. Further, the TGI in assay [6], in assay [7], in assay [8], in [10], in [11] and in [13] was more than 100 µM throughout. The TGI in assay [19] and in [15] was more than 100 µM in each case.
